Source: patent US10076519B2 (CYTOKINETICS, INC., priority 2010, dated 2018)

Test system: rabbit skeletal myofibrils (fast skeletal myofibrils)
Experiment: Activation of fast skeletal myofibrils (PUMA assay, PK/LDH-coupled ATPase at pCa25)
Type: biochemical
Details: AC1.4 determined according to the procedure of Example 39; reported as class symbols
Experimental: Preparation of Fast Skeletal Myofibrils.
Rabbit skeletal myofibrils were prepared based upon the method of Herrmann et al. (Biochem. 32(28):7255-7263(1993). Myofibrils were prepared from rabbit psoas muscle purchased from Pel-Freez Biologicals (Arkansas) within 2 days of ordering, stored on ice. Minced muscle was homogenized in 10 volumes of ice-cold “standard” buffer (50 mM Tris, pH 7.4, 0.1M potassium acetate, 5 mM KCl, 2 mM DTT, 0.2 mM PMSF, 10 μM leupeptin, 5 μM pepstatin, and 0.5 mM sodium azide) containing 5 mM EDTA and 0.5% Triton X-100 using an Omni-Macro homogenizer. Myofibrils were recovered by low speed centrifugation (3000 rpm for 10 minutes) and washed 2 times in the Triton X-100 containing buffer to ensure removal of cellular membrane. Following the Triton washes, myofibrils were washed 3 times in “standard” buffer containing 2 mM magnesium acetate. A final wash in assay buffer (12 mM PIPES, pH 6.8, 60 mM KCl, 1 mM DTT) was performed and brought to 10% sucrose for flash freezing in liquid nitrogen and storage at −80° C.
Activation of Fast Skeletal Myofibrils.
Fast fiber activators were identified by measuring the enzymatic activity of muscle myofibril preparations using the proprietary PUMA™ (see, e.g., U.S. Pat. Nos. 6,410,254, 6,743,599, 7,202,051, and 7,378,254) assay system. Myofibril preparations consisted of rabbit skeletal muscle (approximately 90% fast fibers) that had been mechanically homogenized and washed with a detergent (triton X-100) to remove cellular membranes. This preparation retained all of the sarcomeric components in a native conformation and the enzymatic activity was still regulated by calcium. Compounds were tested using a myofibril suspension and a level of calcium sufficient to increase enzymatic activity of the myofibrils to 25% of their maximal rate (termed pCa25). Enzymatic activity was tracked via a pyruvate kinase and lactate dehydrogenase-coupled enzyme system. This assay regenerates myosin-produced ADP into ATP by oxidizing NADH, producing an absorbance change at 340 nm. The buffering system was 12 mM Pipes, 2 mM MgCl2, 1 mM DTT at pH 6.8 (PM12 buffer).
Using procedures similar to those described herein, utilizing reagents and intermediates commercially available (e.g., Sigma-Aldrich, St. Louis, Mo.) or readily synthesized by one of skill in the art, the compounds in Table 2 were synthesized, characterized and tested. AC1.4 values were determined according to the procedure described in Example 39, and the reported median AC1.4 values are as follows: A=<1 uM; B=1-10 uM; C=10-20 uM; D=>20 uM.

CC(C)(O)c1cccc(C(C)(C)CNc2ccc(-c3ccc4[nH]nc(N)c4c3)nn2)c1
Mean AC1.4: C (C=10-20 uM)

CC(C)(CNc1ccc(-c2ccc3[nH]nc(N)c3c2)nn1)c1ccc(CCO)cc1
Mean AC1.4: B (B=1-10 uM)

CC(C)(O)c1ccc(C(C)(C)CNc2ccc(-c3ccc4[nH]nc(N)c4c3)nn2)cc1
Mean AC1.4: D (D=>20 uM)

N#Cc1ccnc(C2(CNc3ccc(-c4ccc5[nH]ncc5c4)nn3)CCC2)c1
Mean AC1.4: A (A=<1 uM)

NC(=O)c1ccnc(C2(CNc3ccc(-c4ccc5[nH]ncc5c4)nn3)CCC2)c1
Mean AC1.4: C (C=10-20 uM)

Oc1ccnc(C2(CNc3ccc(-c4ccc5[nH]ncc5c4)nn3)CCC2)c1
Mean AC1.4: D (D=>20 uM)

Oc1ccnc(C2(CNc3ccc(-c4ccc5cn[nH]c5c4)nn3)CCC2)c1
Mean AC1.4: D (D=>20 uM)

NC(=O)c1ccnc(C2(CNc3ccc(-c4cc(C(N)=O)ccc4F)nn3)CCC2)c1
Mean AC1.4: D (D=>20 uM)

NC(=O)c1cccc(-c2ccc(NCC3(c4cc(C(N)=O)ccn4)CCC3)nn2)c1
Mean AC1.4: D (D=>20 uM)

CC(C)(CNc1ccc(-c2ccc3c(=O)[nH]c(N)nc3c2)nn1)c1ccc(F)cc1
Mean AC1.4: C (C=10-20 uM)

NCC(=O)Nc1n[nH]c2ccc(-c3ccc(NCC4(c5ncccc5F)CCC4)nn3)cc12
Mean AC1.4: B (B=1-10 uM)

NC(=O)c1cccc(-c2ccc(NCC3(c4ncccc4F)CCC3)nn2)c1F
Mean AC1.4: B (B=1-10 uM)

O=C(O)c1cc(-c2ccc(NCC3(c4ncccc4F)CCC3)nn2)ccc1F
Mean AC1.4: B (B=1-10 uM)

CC(C)(CNc1ccc(-c2ccc3[nH]nc(N)c3c2)nn1)c1cccc(O)c1
Mean AC1.4: B (B=1-10 uM)

CC(C)(CNc1ccc(-c2ccc3[nH]nc(N)c3c2)nn1)c1cccc(C#N)c1
Mean AC1.4: A (A=<1 uM)

CC(C)(CNc1ccc(-c2ccc3[nH]nc(N)c3c2)nn1)c1cccc(C(N)=O)c1
Mean AC1.4: D (D=>20 uM)

N#Cc1cccc(-c2ccc(NCCc3ccc(Cl)cc3Cl)nn2)c1
Mean AC1.4: D (D=>20 uM)

NC(=O)c1cccc(-c2ccc(NCCc3ccc(Cl)cc3Cl)nn2)c1
Mean AC1.4: C (C=10-20 uM)

NC(=O)c1cccc(-c2ccc(NCCc3ccc(F)cc3F)nn2)c1
Mean AC1.4: D (D=>20 uM)

NC(=O)c1cccc(-c2ccc(NCCc3ccc(Cl)c(Cl)c3)nn2)c1
Mean AC1.4: C (C=10-20 uM)

NC(=O)c1cccc(-c2ccc(NCCc3ccc(F)c(F)c3)nn2)c1
Mean AC1.4: C (C=10-20 uM)

NC(=O)c1cccc(-c2ccc(NCCc3cc(F)cc(F)c3)nn2)c1
Mean AC1.4: D (D=>20 uM)

CC(C)(CNc1ccc(-c2cccc(C(N)=O)c2)nn1)OCc1ccccc1
Mean AC1.4: D (D=>20 uM)

NC(=O)c1cccc(-c2ccc(NCC3(c4ccccn4)CCC3)nn2)c1
Mean AC1.4: A (A=<1 uM)

CC(Nc1ccc(-c2cccc(C(N)=O)c2)nn1)c1ccc(F)cc1 (stereo not drawn)
Mean AC1.4: C (C=10-20 uM)

N=C(N)c1cccc(-c2ccc(NCC3(c4ncccc4F)CCC3)nn2)c1
Mean AC1.4: D (D=>20 uM)

NS(=O)(=O)c1cccc(-c2ccc(NCC3(c4ncccc4F)CCC3)nn2)c1
Mean AC1.4: A (A=<1 uM)

NC(=O)c1cccc(-c2ccc(NCC3(c4ncccc4F)CCC3)nn2)c1
Mean AC1.4: A (A=<1 uM)

Cc1ccc(C(N)=O)cc1-c1ccc(NCC2(c3ncccc3F)CCC2)nn1
Mean AC1.4: B (B=1-10 uM)

N#Cc1ccnc(C2(CNc3ccc(-c4cccc(C(N)=O)c4)nn3)CCC2)c1
Mean AC1.4: B (B=1-10 uM)

N#Cc1ccnc(C2(CNc3ccc(-c4cc(C(N)=O)ccc4F)nn3)CCC2)c1
Mean AC1.4: B (B=1-10 uM)

NC(=O)c1cccc(-c2ccc(NCC3(c4ccc(F)cc4)CCC3)nn2)c1
Mean AC1.4: A (A=<1 uM)

NC(=O)c1cccc(-c2ccc(NCC3(c4ccc(F)cn4)CCC3)nn2)c1
Mean AC1.4: B (B=1-10 uM)

N#Cc1cccc(C2(CNc3ccc(-c4cccc(C(N)=O)c4)nn3)CCC2)n1
Mean AC1.4: B (B=1-10 uM)

NC(=O)c1cccc(-c2ccc(NCC3(c4cnccn4)CCC3)nn2)c1
Mean AC1.4: D (D=>20 uM)

CC(Nc1ccc(-c2cccc(C(N)=O)c2)nn1)c1ccccc1 (stereo not drawn)
Mean AC1.4: D (D=>20 uM)

CC(C)(C)OC(=O)N(CC(C)(C)c1ncccc1F)c1ccc(-c2cccc(C(N)=O)c2)nn1
Mean AC1.4: D (D=>20 uM)

CC(C)(C)OC(=O)N(CC(C)(C)c1ccc(F)cc1)c1ccc(-c2cc(C(N)=O)ccc2F)nn1
Mean AC1.4: D (D=>20 uM)

CC(C)(C)OC(=O)N(CC(C)(C)c1ccc(F)cc1)c1ccc(-c2cccc(C(N)=O)c2)nn1
Mean AC1.4: D (D=>20 uM)

NC(=O)n1nc(N)c2cc(-c3ccc(NCC4(c5ncccc5F)CCC4)nn3)ccc21
Mean AC1.4: B (B=1-10 uM)

NC(=O)c1ccc(-c2ccc(NCC3(c4ncccc4F)CCC3)nn2)c(F)c1
Mean AC1.4: B (B=1-10 uM)

NC(=O)c1ccc(-c2ccc(NCC3(c4ncccc4F)CCC3)nn2)cc1
Mean AC1.4: B (B=1-10 uM)

NC(=O)c1ccc(F)c(-c2ccc(NCC3(c4ccccn4)CCC3)nn2)c1
Mean AC1.4: A (A=<1 uM)

NC(=O)c1ccc(F)c(-c2ccc(NCC3(c4ncccc4F)CCC3)nn2)c1
Mean AC1.4: A (A=<1 uM)

COc1cccnc1C1(CNc2ccc(-c3cc(C(N)=O)ccc3F)nn2)CCC1
Mean AC1.4: B (B=1-10 uM)

NC(=O)c1ccc(F)c(-c2ccc(NCC3(c4cc(O)ccn4)CCC3)nn2)c1
Mean AC1.4: D (D=>20 uM)

COc1ccnc(C2(CNc3ccc(-c4cc(C(N)=O)ccc4F)nn3)CCC2)c1
Mean AC1.4: B (B=1-10 uM)

COc1ccc(C2(CNc3ccc(-c4cc(C(N)=O)ccc4F)nn3)CCC2)nc1
Mean AC1.4: D (D=>20 uM)

NC(=O)c1ccc(F)c(-c2ccc(NCC3(c4cccc(O)n4)CCC3)nn2)c1
Mean AC1.4: D (D=>20 uM)

COc1cccc(C2(CNc3ccc(-c4cc(C(N)=O)ccc4F)nn3)CCC2)n1
Mean AC1.4: A (A=<1 uM)

CC(C)(CNc1ccc(-c2ccc(=O)[nH]c2)nn1)c1ccc(F)cc1
Mean AC1.4: B (B=1-10 uM)

CC(C)(CNc1ccc(-c2cnc(=O)[nH]c2)nn1)c1ccc(F)cc1
Mean AC1.4: D (D=>20 uM)

O=c1[nH]c2ccc(-c3ccc(NCC4(c5ncccc5F)CCC4)nn3)cc2[nH]1
Mean AC1.4: B (B=1-10 uM)

NC(=O)c1cc(C(N)=O)cc(-c2ccc(NCC3(c4ncccc4F)CCC3)nn2)c1
Mean AC1.4: B (B=1-10 uM)

O=C(O)c1cc(C(=O)O)cc(-c2ccc(NCC3(c4ncccc4F)CCC3)nn2)c1
Mean AC1.4: D (D=>20 uM)

O=c1ncc(-c2ccc(NCC3(c4ccc(F)cc4)CCC3)nn2)c[nH]1
Mean AC1.4: B (B=1-10 uM)

CC1(C)C(=O)Nc2cc(-c3ccc(NCC4(c5ncccc5F)CCC4)nn3)ccc21
Mean AC1.4: D (D=>20 uM)

N#Cc1ccc(C2(CNc3ccc(-c4ccc5[nH]ncc5c4)nn3)CCC2)nc1
Mean AC1.4: B (B=1-10 uM)

NC(=O)c1cccc(C2(CNc3ccc(-c4ccc5[nH]ncc5c4)nn3)CCC2)n1
Mean AC1.4: B (B=1-10 uM)

N#Cc1cccc(C2(CNc3ccc(-c4ccc5[nH]ncc5c4)nn3)CCC2)n1
Mean AC1.4: B (B=1-10 uM)

NC(=O)c1cccc(-c2ccc(NCC3(c4cccc(C(N)=O)n4)CCC3)nn2)c1
Mean AC1.4: D (D=>20 uM)

CC(=O)Nc1n[nH]c2ccc(-c3ccc(NCC4(c5ncccc5F)CCC4)nn3)cc12
Mean AC1.4: B (B=1-10 uM)

COC(=O)NCc1ccc(-c2ccc(NCC(C)(C)c3ccc(F)cc3)nn2)cn1
Mean AC1.4: C (C=10-20 uM)

CC(C)(CNc1ccc(-c2ccc3[nH]nc(N)c3c2)nn1)c1ccccc1CO
Mean AC1.4: B (B=1-10 uM)

CN(C)CCc1cccc(C(C)(C)CNc2ccc(-c3ccc4[nH]nc(N)c4c3)nn2)c1
Mean AC1.4: D (D=>20 uM)

CNC(=O)c1cc(-c2ccc(NCC3(c4ncccc4F)CCC3)nn2)ccc1F
Mean AC1.4: B (B=1-10 uM)

CC(C)(CNc1ccc(-c2ccc3[nH]nc(N)c3c2)nn1)c1cccc(CO)c1
Mean AC1.4: B (B=1-10 uM)

CS(=O)(=O)Nc1cccc(-c2ccc(NCC3(c4ncccc4F)CCC3)nn2)c1
Mean AC1.4: B (B=1-10 uM)

CS(=O)(=O)Nc1ccc(-c2ccc(NCC3(c4ncccc4F)CCC3)nn2)cc1
Mean AC1.4: B (B=1-10 uM)

CS(=O)(=O)Nc1n[nH]c2ccc(-c3ccc(NCC4(c5ncccc5F)CCC4)nn3)cc12
Mean AC1.4: A (A=<1 uM)

CN(C)Cc1cccc(C(C)(C)CNc2ccc(-c3ccc4[nH]nc(N)c4c3)nn2)c1
Mean AC1.4: D (D=>20 uM)

NC(=O)Nc1cccc(-c2ccc(NCC3(c4ncccc4F)CCC3)nn2)c1
Mean AC1.4: A (A=<1 uM)

N=C(N)Nc1cccc(-c2ccc(NCC3(c4ncccc4F)CCC3)nn2)c1
Mean AC1.4: B (B=1-10 uM)

N=C(N)Nc1ccc(-c2ccc(NCC3(c4ncccc4F)CCC3)nn2)cc1
Mean AC1.4: B (B=1-10 uM)

N=C(N)Nc1n[nH]c2ccc(-c3ccc(NCC4(c5ncccc5F)CCC4)nn3)cc12
Mean AC1.4: B (B=1-10 uM)
